Data taken from patent US9975882B2, “Heteroaromatic compounds as BTK inhibitors” (Boehringer Ingelheim International GmbH, priority 2015, dated 2018).

Columns and labels:
[1] = molecular target: human full length His-tagged BTK (Homo sapiens (Human), UniProt Q06187); experiment: BTK Lanthscreen Eu Kinase Binding assay; details: 2 nM BTK
Procedure: BTK Lanthscreen® Eu Kinase Binding Assay:
A Lanthscreen® Eu Kinase Binding assay (Life Technologies) is performed to quantitate the ability of test compounds to bind to BTK. The assay is based on the binding and displacement of Alexa Fluor647-labeled Kinase Tracer #236 to the ATP-binding site of human full length His-tagged BTK (Life Technologies cat #PV3587) with TR-FRET detection using a europium-labeled anti-His antibody. The assay is assembled in 384-well low volume NBS black plates (Corning) where 2 nM BTK and test compound in DMSO at varying concentrations are pre-incubated for 30 min at 28° C. in assay buffer consisting of 50 mM HEPES, pH 7.4, 10 mM MgCl2, 1 mM EGTA. 100 μM Na3VO4 and 0.01% Brij 35. Then, 2 nM of Eu-anti His antibody and 30 nM Kinase Tracer are added and incubated for 60 min at 28° C. Following incubation, TR-FRET signal is read on an Envision plate reader (Excitation: 340 nm; Emissions: 615 and 665 nm). The 665:615 nm emission ratio is calculated and converted to POC compared to control and blank wells.

[2] = tested on: BTK (IL-6 production in primary CD19+ B cells); experiment: Inhibition of IL-6 production in B cells co-stimulated with ODN 2006 and anti-hIgD; assay type: cell-based; details: B-cell, anti-human IgD + ODN 2006
Procedure: Inhibition of IL-6 Production in B Cells Co-Stimulated with ODN 2006 and anti-hIgD
Primary CD19+ B cells (AllCells #PB010F) are thawed and plated in RPMI containing 10% HI FBS in a 384-well tissue cultured plate at 20,000 cells/well. The cells are treated with test compound (0.5% DMSO final concentration) and incubated for 1 hour at 37° C., 5% CO2. Cells are then stimulated with 5 ug/mL Goat F(ab′)2 anti-human IgD (SouthernBiotech #2032) and 2 uM ODN 2006 (InvivoGen #tlrl-2006) and incubated for 18-24 hours at 37° C., 5% CO2. IL-6 in the supernatant is measured using Meso Scale Discovery kit #K211AKB-6.
(§1) Representative compounds of the present invention are tested and show BTK inhibition (Table I). […] Additionally, compounds of the present invention, as represented by examples in Table II, are selective for BTK inhibition over other related kinases. […] In this table the BTK activity is measured by IL-6 production in primary CD19^+ B cells, and the EGFR activity is measured by EGFR phosphorylation in A431 cells.

[3] = molecular target: EGFR (EGFR phosphorylation in A431 cells) (Homo sapiens (Human), UniProt P00533); experiment: Inhibition of EGFR autophosphorylation in A431 human epithelial cells stimulated with EGF; assay type: cell-based; details: EGF 60 ng/mL, read-out: A431 p-EGFR IC50
Procedure: Inhibition of EGFR Autophosphorylation in A431 Human Epithelial Cells Stimulated with Epithelial Growth Factor
A431 cells (ATCC #CRL-1555 FZ) are thawed and plated in DMEM containing 10% FBS in a 384-well tissue culture treated plate at 15,000 cells/well. After incubating for 24 hours at 37° C., 5% CO2, the cells are treated with test compound (1% DMSO final concentration) and incubated for 16 hours at 37° C., 5% CO2. EGF (Millipore, 01-107) is added at a final concentration of 60 ng/mL and incubated for 10 minutes. The medium is removed, the cells are lysed, and phospho EGFR is measured (Meso Scale Diagnostics, N31CB-1).
as §1

[4] = molecular target: human recombinant BTK (full length, His-tagged) (Homo sapiens (Human), UniProt Q06187); experiment: BTK Z'-LYTE assay; assay type: biochemical; details: 25 μM ATP;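 further: FRET readout of kinase phosphorylating a coumarin and fluorescein labelled synthetic peptide, detected via protease sensitivity of unphosphorylated versus phosphorylated substrate, incubated at 22 °C in 384-well plates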
Procedure: Z′-LYTE™ Assay (Life Technologies):
(§2) The Z′-Lyte assay employs a FRET-based, coupled-enzyme format and is based on the differential sensitivity of phosphorylated and non-phosphorylated peptides to proteolytic Cleavage. The activity of human recombinant BTK (full length, His-tagged), BMX (full length, His-tagged) or Txk (full length, GST-tagged) is estimated by measuring the phosphorylation of a synthetic FRET peptide substrate labeled with Coumarin and Fluorescein. […] Incubations are carried out at 22° C. in black polypropylene 384-well plates (Corning).
(§3) Representative compounds of the present invention are assessed for inhibition of BTK, BMX, and TXK measuring phosphorylation of a substrate (Z′-LYTE™ assay, Life Technologies) and TEC measuring displacement of a “tracer” (Lanthscreen® Eu Kinase Binding assay, Life Technologies).

[5] = molecular target: human recombinant full length TEC (His-tagged) (Homo sapiens (Human), UniProt P42680); experiment: TEC Lanthscreen Eu Kinase Binding assay; details: 1 nM TEC
[6] = molecular target: human recombinant Txk (full length, GST-tagged) (Homo sapiens (Human), UniProt P42681); experiment: TXK Z'-LYTE assay; details: read-out: TXK IC50, 100 μM ATP;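 further: FRET read-out of kinase phosphorylation of a synthetic peptide labelled with Coumarin and Fluorescein, scored by protease sensitivity of unphosphorylated peptide, incubated at 22 °C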
human recombinant Txk (full length, GST-tagged), sequence (P42681 whole entry): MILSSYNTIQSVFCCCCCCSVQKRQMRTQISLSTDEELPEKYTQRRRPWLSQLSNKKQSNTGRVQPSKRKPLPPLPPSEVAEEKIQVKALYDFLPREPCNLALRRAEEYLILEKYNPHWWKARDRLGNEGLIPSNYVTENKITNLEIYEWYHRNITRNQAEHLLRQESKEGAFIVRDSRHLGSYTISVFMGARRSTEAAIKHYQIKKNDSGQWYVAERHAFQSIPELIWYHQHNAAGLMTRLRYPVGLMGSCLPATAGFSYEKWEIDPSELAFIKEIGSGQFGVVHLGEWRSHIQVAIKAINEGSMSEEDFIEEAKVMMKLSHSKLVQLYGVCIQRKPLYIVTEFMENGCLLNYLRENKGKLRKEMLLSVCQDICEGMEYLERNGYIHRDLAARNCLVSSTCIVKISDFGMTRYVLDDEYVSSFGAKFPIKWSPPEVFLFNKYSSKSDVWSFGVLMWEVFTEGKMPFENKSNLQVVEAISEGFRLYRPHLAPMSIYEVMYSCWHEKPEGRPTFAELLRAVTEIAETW
Procedure: Z′-LYTE™ Assay (Life Technologies):
as §2, §3

EGFR (EGFR phosphorylation in A431 cells), sequence (P00533 25-1210): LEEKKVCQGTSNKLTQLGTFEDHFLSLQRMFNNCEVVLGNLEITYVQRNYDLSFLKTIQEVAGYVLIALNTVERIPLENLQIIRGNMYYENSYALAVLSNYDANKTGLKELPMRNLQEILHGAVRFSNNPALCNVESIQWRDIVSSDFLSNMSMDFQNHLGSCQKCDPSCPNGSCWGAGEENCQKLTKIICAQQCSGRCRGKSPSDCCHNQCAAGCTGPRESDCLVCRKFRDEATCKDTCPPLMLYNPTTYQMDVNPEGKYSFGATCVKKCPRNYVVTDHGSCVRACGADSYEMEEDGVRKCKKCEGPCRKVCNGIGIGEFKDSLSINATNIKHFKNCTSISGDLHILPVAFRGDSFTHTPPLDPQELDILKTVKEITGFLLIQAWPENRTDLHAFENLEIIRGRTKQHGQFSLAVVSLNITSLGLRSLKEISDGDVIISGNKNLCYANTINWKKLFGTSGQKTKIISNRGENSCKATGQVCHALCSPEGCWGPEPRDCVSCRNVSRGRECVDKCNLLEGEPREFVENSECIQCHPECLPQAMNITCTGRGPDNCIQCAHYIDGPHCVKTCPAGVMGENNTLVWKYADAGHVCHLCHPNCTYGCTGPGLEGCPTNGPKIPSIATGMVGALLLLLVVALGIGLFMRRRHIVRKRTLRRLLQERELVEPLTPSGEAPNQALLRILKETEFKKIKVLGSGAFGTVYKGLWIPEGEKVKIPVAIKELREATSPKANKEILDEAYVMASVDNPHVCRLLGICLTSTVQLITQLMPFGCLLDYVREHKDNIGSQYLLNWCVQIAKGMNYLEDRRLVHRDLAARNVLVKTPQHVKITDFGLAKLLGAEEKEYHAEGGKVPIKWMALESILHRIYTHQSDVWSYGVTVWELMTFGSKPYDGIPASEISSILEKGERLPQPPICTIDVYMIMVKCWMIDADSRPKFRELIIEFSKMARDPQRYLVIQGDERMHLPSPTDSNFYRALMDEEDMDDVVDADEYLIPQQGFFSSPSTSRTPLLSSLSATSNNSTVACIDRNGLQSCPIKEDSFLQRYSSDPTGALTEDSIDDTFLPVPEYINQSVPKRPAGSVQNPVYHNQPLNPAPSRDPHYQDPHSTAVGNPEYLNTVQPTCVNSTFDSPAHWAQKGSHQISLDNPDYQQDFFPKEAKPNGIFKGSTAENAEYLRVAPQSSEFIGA
human full length His-tagged BTK, sequence (Q06187 whole entry): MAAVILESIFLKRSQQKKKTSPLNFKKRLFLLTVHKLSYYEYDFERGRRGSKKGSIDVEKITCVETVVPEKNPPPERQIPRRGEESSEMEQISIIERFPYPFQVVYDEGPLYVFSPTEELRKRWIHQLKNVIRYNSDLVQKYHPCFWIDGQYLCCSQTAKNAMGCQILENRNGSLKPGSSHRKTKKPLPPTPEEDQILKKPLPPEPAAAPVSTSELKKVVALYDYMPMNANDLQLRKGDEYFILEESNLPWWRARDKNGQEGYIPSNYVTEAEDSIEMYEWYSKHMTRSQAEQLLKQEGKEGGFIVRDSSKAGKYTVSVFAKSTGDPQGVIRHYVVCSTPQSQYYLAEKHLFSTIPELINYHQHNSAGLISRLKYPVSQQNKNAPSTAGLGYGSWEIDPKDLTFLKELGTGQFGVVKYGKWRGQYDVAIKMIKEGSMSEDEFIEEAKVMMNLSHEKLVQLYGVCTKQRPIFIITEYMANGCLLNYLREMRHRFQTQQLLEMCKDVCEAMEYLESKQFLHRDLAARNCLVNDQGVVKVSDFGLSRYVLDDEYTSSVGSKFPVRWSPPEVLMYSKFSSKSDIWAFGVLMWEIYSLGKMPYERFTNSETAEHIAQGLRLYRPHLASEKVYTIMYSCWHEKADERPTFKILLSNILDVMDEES
human recombinant BTK (full length, His-tagged), sequence (Q06187 whole entry): as above
human recombinant full length TEC (His-tagged), sequence (P42680 whole entry): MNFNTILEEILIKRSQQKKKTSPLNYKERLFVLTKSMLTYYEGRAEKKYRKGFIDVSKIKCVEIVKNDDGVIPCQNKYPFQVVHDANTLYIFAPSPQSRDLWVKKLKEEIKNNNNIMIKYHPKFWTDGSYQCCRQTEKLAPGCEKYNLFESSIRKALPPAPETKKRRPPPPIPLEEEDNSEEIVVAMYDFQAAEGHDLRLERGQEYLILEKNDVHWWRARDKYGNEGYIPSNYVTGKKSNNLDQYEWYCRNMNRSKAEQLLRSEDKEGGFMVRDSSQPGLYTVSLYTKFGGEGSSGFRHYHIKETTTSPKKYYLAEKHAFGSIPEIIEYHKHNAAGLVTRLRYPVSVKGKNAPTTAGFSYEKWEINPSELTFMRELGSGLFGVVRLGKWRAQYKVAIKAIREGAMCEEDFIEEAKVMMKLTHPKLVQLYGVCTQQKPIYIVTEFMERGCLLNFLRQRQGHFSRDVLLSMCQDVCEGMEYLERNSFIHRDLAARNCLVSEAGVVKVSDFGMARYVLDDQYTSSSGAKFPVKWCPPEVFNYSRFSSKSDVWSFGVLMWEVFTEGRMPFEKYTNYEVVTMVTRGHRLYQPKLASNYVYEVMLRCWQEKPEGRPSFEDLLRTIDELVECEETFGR

Row | Structure (SMILES) | IC50 [1] [nM] | IC50 [2] [nM] | IC50 [3] [nM] | IC50 [4] [nM] | IC50 [5] [nM] | IC50 [6] [nM]
1 | C=CC(=O)N1CC[C@]2(C1)C[C@H](n1nc(-c3cnn(Cc4ccccc4)c3)c(C(N)=O)c1N)C2 [Example 1] | 36 |  |  |  |  | 
2 | CC#CC(=O)N1CC[C@]2(C1)C[C@H](n1nc(-c3cnn(Cc4cccc(Cl)c4)c3)c(C(N)=O)c1N)C2 [Example 2] |  | 0.3 | > 10000 |  |  | 
3 | CC#CC(=O)N1CC[C@]2(C1)C[C@H](n1nc(-c3cnn(Cc4cccc(C(F)(F)F)c4Cl)c3)c(C(N)=O)c1N)C2 [Example 3] |  | 1.2 | > 10000 |  |  | 
4 | CC#CC(=O)N1CC[C@]2(C1)C[C@H](n1nc(-c3cnn(Cc4cc(C(F)(F)F)ccc4C)c3)c(C(N)=O)c1N)C2 [Example 4] | 1.8 |  |  |  |  | 
5 | CC#CC(=O)N1CC[C@]2(C1)C[C@H](n1nc(-c3cnn(Cc4ccc(C)c(C(F)(F)F)c4)c3)c(C(N)=O)c1N)C2 [Example 5] | 0.4 |  |  |  |  | 
6 | CC#CC(=O)N1CC[C@]2(C1)C[C@H](n1nc(-c3cnn(Cc4cccc(C(F)(F)F)c4C)c3)c(C(N)=O)c1N)C2 [Example 6] | 0.4 | 1 | > 10000 | 1.5 | 65 | 43
7 | CC#CC(=O)N1CC[C@]2(C1)C[C@H](n1nc(-c3cnn(Cc4cc(C(F)(F)F)ccc4OC)c3)c(C(N)=O)c1N)C2 [Example 7] |  | 72 | > 10000 |  |  | 
8 | CC#CC(=O)N1CC[C@]2(C1)C[C@H](n1nc(-c3cnn(Cc4cc(C(F)(F)F)ccc4Cl)c3)c(C(N)=O)c1N)C2 [Example 8] |  | 2.5 | > 10000 |  |  | 
9 | CC#CC(=O)N1CC[C@]2(C1)C[C@H](n1nc(-c3cnn(Cc4ccccc4OC(F)(F)F)c3)c(C(N)=O)c1N)C2 [Example 9] | 0.6 |  |  |  |  | 
10 | CC#CC(=O)N1CC[C@]2(C1)C[C@H](n1nc(-c3cnn(Cc4cccc(C(F)(F)F)c4C#N)c3)c(C(N)=O)c1N)C2 [Example 10] | 0.5 | 1.1 | > 10000 | 1.4 | 120 | 100
11 | CC#CC(=O)N1CC[C@]2(C1)C[C@H](n1nc(-c3cnn(Cc4ccccc4C#N)c3)c(C(N)=O)c1N)C2 [Example 11] | 0.7 |  |  | 1.8 | 73 | 150
12 | CC#CC(=O)N1CC[C@]2(C1)C[C@H](n1nc(-c3cnn(Cc4ccnc(C(F)(F)F)c4)c3)c(C(N)=O)c1N)C2 [Example 13] | 9.1 |  |  |  |  | 
13 | CC#CC(=O)N1CC[C@]2(C1)C[C@H](n1nc(-c3cnn(Cc4cccc(C(F)(F)F)n4)c3)c(C(N)=O)c1N)C2 [Example 14] | 0.5 | 1.1 | > 10000 | 1.7 | 92 | 
14 | CC#CC(=O)N1CC[C@]2(C1)C[C@H](n1nc(-c3cnn(C(C)c4cccc(C(F)(F)F)c4)c3)c(C(N)=O)c1N)C2 (some centres unmarked) [Example 15] | 1.1 |  |  |  |  | 
15 | CC#CC(=O)N1CC[C@]2(C1)C[C@H](n1nc(-c3cnn(Cc4ccccc4C)c3)c(C(N)=O)c1N)C2 [Example 16] | 1.5 | 2 | > 10000 | 13 | 220 | 430
16 | CC#CC(=O)N1CC[C@]2(C1)C[C@H](n1nc(-c3cnn([C@H](C)c4cccc(C(F)(F)F)c4)c3)c(C(N)=O)c1N)C2 [Example 18] |  | 8 | > 10000 |  |  | 
17 | C=CC(=O)N1CC[C@]2(C1)C[C@H](n1nc(-c3cnn(Cc4cccc(C(F)(F)F)c4)c3)c(C(N)=O)c1NC)C2 [Example 20] | 22 |  |  |  |  | 
18 | CC#CC(=O)N1CC[C@]2(C1)C[C@H](n1nc(-c3cnn(Cc4cccc(C5CC5)c4)c3)c(C(N)=O)c1NC)C2 [Example 24] | 0.8 |  |  |  |  | 
19 | CC#CC(=O)N1CC[C@]2(C1)C[C@H](n1nc(-c3cnn(Cc4cccc(Cl)c4)c3)c(C(N)=O)c1NC)C2 [Example 27] | 1.7 | 3.4 | > 10000 | 6.6 | 66 | 
20 | CC#CC(=O)N1CC[C@]2(C1)C[C@H](n1nc(-c3cnn(Cc4cccc(F)c4)c3)c(C(N)=O)c1N)C2 [Example 28] | 0.3 |  |  | 1.2 | 39 | 95

Row | Structure (SMILES) | IC50 [1] [nM] | IC50 [2] [nM] | IC50 [3] [nM] | IC50 [4] [nM] | IC50 [5] [nM] | IC50 [6] [nM]
21 | CC#CC(=O)N1CC[C@]2(C1)C[C@H](n1nc(-c3cnn(Cc4ccc(F)cc4)c3)c(C(N)=O)c1N)C2 [Example 29] | 0.8 |  |  | 3.6 |  | 92
22 | CC#CC(=O)N1CC[C@]2(C1)C[C@H](n1nc(-c3cnn(Cc4cc(F)cc(C(F)(F)F)c4)c3)c(C(N)=O)c1N)C2 [Example 31] | 0.8 |  |  |  |  | 
23 | CC#CC(=O)N1CC[C@]2(C1)C[C@H](n1nc(-c3cnn(Cc4cc(C(F)(F)F)ccc4F)c3)c(C(N)=O)c1N)C2 [Example 32] | 0.5 | 1.3 | > 10000 | 1.9 |  | 
24 | CC#CC(=O)N1CC[C@]2(C1)C[C@H](n1nc(-c3cn(Cc4cccc(Cl)c4)nc3C)c(C(N)=O)c1N)C2 [Example 34] | 0.7 |  |  |  |  | 
25 | CC#CC(=O)N1CC[C@]2(C1)C[C@H](n1nc(-c3cn(Cc4cccc(C(F)F)c4)nc3C)c(C(N)=O)c1N)C2 [Example 35] | 0.9 |  |  |  |  | 
26 | CC#CC(=O)N1CC[C@]2(C1)C[C@H](n1nc(-c3cn(Cc4cccc(C5CC5)c4)nc3C)c(C(N)=O)c1N)C2 [Example 37] | 0.8 |  |  |  |  | 
27 | CC#CC(=O)N1CC[C@]2(C1)C[C@H](n1nc(-c3cnn(Cc4cc(C)cc(C(F)(F)F)c4)c3)c(C(N)=O)c1N)C2 [Example 38] | 3 |  |  |  |  | 
28 | CC#CC(=O)N1CC[C@]2(C1)C[C@H](n1nc(-c3cnn(Cc4cc(Cl)cc(C(F)(F)F)c4)c3)c(C(N)=O)c1N)C2 [Example 39] | 0.9 |  |  |  |  | 
29 | CC#CC(=O)N1CC2(CC(n3nc(-c4cnn(Cc5cc(C)cc(C)c5)c4)c(C(N)=O)c3N)C2)C1 [Example 40] | 4.2 |  |  |  |  | 
30 | NC(=O)c1c(-c2cnn(Cc3ccccc3)c2)nn([C@H]2C[C@@]3(CCN(C(=O)C#CC4CC4)C3)C2)c1N [Example 41] | 0.3 |  |  |  |  | 
31 | C=CC(=O)N1CC[C@]2(C1)C[C@H](n1nc(-c3cnn(Cc4cccc(C(F)(F)F)c4)c3)c(C(N)=O)c1N)C2 [Example 42] | 78 |  |  |  |  | 
32 | C=CC(=O)N1CC[C@]2(C1)C[C@H](n1nc(-c3cnn(Cc4cccc(C5CC5)c4)c3)c(C(N)=O)c1N)C2 [Example 43] | 3 |  |  |  |  | 
33 | CC#CC(=O)N1CC2(CC(n3nc(-c4cnn(Cc5ccccc5)c4)c(C(N)=O)c3N)C2)C1 [Example 45] | 6 |  |  |  |  | 
34 | CC#CC(=O)N1CC2(CC(n3nc(-c4cnn(Cc5cc(C)cc(C(F)(F)F)c5)c4)c(C(N)=O)c3N)C2)C1 [Example 46] | 7.9 |  |  |  |  | 
35 | C=CC(=O)N1CC2(CC(n3nc(-c4cnn(Cc5ccccc5)c4)c(C(N)=O)c3N)C2)C1 [Example 48] | 16 |  |  |  |  | 
36 | CC#CC(=O)N1CC2(CC(n3nc(-c4cnn(Cc5cc(C(F)(F)F)cc(C(F)(F)F)c5)c4)c(C(N)=O)c3N)C2)C1 [Example 49] | 45 |  |  |  |  | 
37 | CC#CC(=O)N1CC[C@]2(C1)C[C@H](n1nc(-c3cnn(Cc4cc(F)ccc4C(F)(F)F)c3)c(C(N)=O)c1N)C2 [Example 57] | 0.9 |  |  |  |  | 
38 | CC#CC(=O)N1CC[C@]2(C1)C[C@H](n1nc(-c3cnn(Cc4ccc(Cl)c(C(F)(F)F)c4)c3)c(C(N)=O)c1N)C2 [Example 58] |  | 3.4 | > 10000 |  |  | 
39 | CC#CC(=O)N1CC[C@]2(C1)C[C@H](n1nc(-c3cnn(Cc4cccc(F)c4F)c3)c(C(N)=O)c1N)C2 [Example 59] | 0.3 | 0.4 | > 10000 | 0.8 |  | 68
